pIC50: −log10 of the molar value.
molecular target: Endothelial lipase (EL) (Homo sapiens (Human), UniProt Q9Y5X9); assay: Endothelial lipase (EL) enzymatic assay with fluorescent substrate A10070 in DMPG vesicles; assay type: biochemical; conditions: conditioned media from HT-1080 cells overexpressing endogenous EL; 20 min preincubation at 37° C.; read-out: HLE_EL_CRC IC50
Experimental: Endothelial lipase activity was measured using a fluorescent substrate, A10070, (Invitrogen, CA) doped into an artificial vesicle containing DMPG (Avanti Polar Lipids) as the excipient. Vesicles were prepared by combining 285 uL of 1 mM DMPG in a 1:1 mixture of MeOH and CHCl3 with 15 uL of 1 mM A10070 in a 1:1 mixture of MeOH and CHCl3. The mixture was dried under nitrogen and resuspended in 150 uL of 50 mM HEPES pH 8.0 buffer containing 100 mM NaCl and 0.2 mM EDTA. The sample was allowed to sit at rt for 15 min and then was sonicated 3×4 mins on ice with a Branson Sonicator using duty cycle 1. This preparation provides vesicles with a mole fraction of 0.05 for the FRET substrate.
The enzymatic assay was measured using white, opaque 96-well half area plates. Each well contained 60 uL of assay buffer (50 mM HEPES pH 8.0, 50 mM NaCl and 1 mM CaCl2) and 2 ul of a DMSO solution containing compound of interest. Conditioned media obtained from HT-1080 cells, which were transformed by RAGE technology (Athersys) to overexpress endogenous EL, was added and the reaction was allowed to incubate for 20 min at 37° C. with gentle agitation. The reaction was started by the addition of 20 uL of a 1:4 dilution of vesicles. The final total reaction volume was 100 uL. The reaction rates were measured on a Gemini plate reader with an excitation wavelength of 488 nm and a emission of 530 nm. Readings were taken every 20 seconds for 10 min with agitation between each reading. The slope of the linear portion of the readout was used to calculate the rate of the reaction.

Endothelial lipase (EL), sequence (Q9Y5X9 21-500): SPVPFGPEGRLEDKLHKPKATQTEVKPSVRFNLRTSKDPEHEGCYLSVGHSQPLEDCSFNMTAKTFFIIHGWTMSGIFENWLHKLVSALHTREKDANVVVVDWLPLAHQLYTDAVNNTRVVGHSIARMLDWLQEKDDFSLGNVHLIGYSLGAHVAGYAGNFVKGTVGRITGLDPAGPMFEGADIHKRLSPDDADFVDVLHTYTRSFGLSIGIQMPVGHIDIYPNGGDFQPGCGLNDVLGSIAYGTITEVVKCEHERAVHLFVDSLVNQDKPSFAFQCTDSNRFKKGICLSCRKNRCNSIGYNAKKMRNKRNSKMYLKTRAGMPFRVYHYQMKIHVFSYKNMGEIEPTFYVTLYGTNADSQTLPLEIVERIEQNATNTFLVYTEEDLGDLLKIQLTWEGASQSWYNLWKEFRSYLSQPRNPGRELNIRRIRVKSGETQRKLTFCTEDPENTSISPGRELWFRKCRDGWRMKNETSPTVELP

SMILES | pIC50
Cn1ccc(C(=O)NCc2ccc(Oc3ccc(F)cc3)cc2)c(O)c1=O [Example 16, N-(4-(4-fluorophenoxy)benzyl)-3-hydroxy-1-methyl-2-oxo-1,2-dihydropyridine-4-carboxamide] | 8.00
Cn1ccc(C(=O)NCc2ccccc2N2CCCC2)c(O)c1=O [Example 31, 3-hydroxy-1-methyl-2-oxo-N-(2-(pyrrolidin-1-yl)benzyl)-1,2-dihydropyridine-4-carboxamide] | 5.19
O=C(NCc1ccccc1-c1ccc(F)cc1)c1ccn(CC(F)(F)F)c(=O)c1O [Example 41, N-((4′-fluorobiphenyl-2-yl)methyl)-3-hydroxy-2-oxo-1-(2,2,2-trifluoroethyl)-1,2-dihydropyridine-4-] | 7.96
Cn1c(Cl)cc(C(=O)NC2CCC(c3ccccc3)CC2)c(O)c1=O (stereo not shown) [Example 44, 6-chloro-3-hydroxy-1-methyl-2-oxo-N-(4-phenylcyclohexyl)-1,2-dihydropyridine-4-carboxamide] | 6.32
O=C(N[C@H]1CC[C@@H](c2ccccc2)CC1)c1ccn(CCCC(F)(F)F)c(=O)c1O [Example 39, 3-hydroxy-2-oxo-N-(cis-4-phenylcyclohexyl)-1-(4,4,4-trifluorobutyl)-1,2-dihydropyridine-4-carboxamide] | 6.16
O=C(NC1CCN(c2ccc(F)cc2)CC1)c1ccn(CC(F)(F)F)c(=O)c1O [Example 33, N-(1-(4-fluorophenyl)piperidin-4-yl)-3-hydroxy-2-oxo-1-(2,2,2-trifluoroethyl)-1,2-dihydropyridine-4-carboxamide] | 5.34
Cn1ccc(C(=O)NCc2cccc(-c3ccccc3)c2)c(O)c1=O [Example 21, N-(biphenyl-3-ylmethyl)-3-hydroxy-1-methyl-2-oxo-1,2-dihydropyridine-4-carboxamide] | 7.75
Cn1c(C(F)(F)F)cc(C(=O)NCc2cccc(-c3ccc(Cl)cc3)c2)c(O)c1=O [Example 32, N-((4′-chlorobiphenyl-3-yl)methyl)-3-hydroxy-1-methyl-2-oxo-6-(trifluoromethyl)-1,2-dihydropyridine-4-carboxamide] | 7.95
O=C(N[C@H]1CC[C@@H](c2ccccc2)CC1)c1ccn(CCC(F)(F)F)c(=O)c1O [Example 37, 3-hydroxy-2-oxo-N-(cis-4-phenylcyclohexyl)-1-(3,3,3-trifluoropropyl)-1,2-dihydropyridine-4-carboxamide] | 6.45
Cn1ccc(C(=O)NCc2ccccc2N2CCCCC2)c(O)c1=O [Example 29, 3-hydroxy-1-methyl-2-oxo-N-(2-(piperidin-1-yl)benzyl)-1,2-dihydropyridine-4-carboxamide] | 5.18

Reference: patent US8993557B2, “Pyridinedione carboxamide inhibitors of endothelial lipase” (Bristol-Myers Squibb Company, priority 2011, dated 2015)
